Target: SHP2 (Homo sapiens (Human), UniProt Q06124)
Experiment: SHP2 allosteric inhibition assay (DiFMUP prompt fluorescence)
Type: biochemical
Settings: 0.2 nM SHP2 activated with 0.5 μM Activating Peptide 1 or 2; substrate DiFMUP; Table 2, class symbols
Text: Without wishing to be bound by theory, SHP2 is allosterically activated through binding of bis-tyrosyl-phosphorylated peptides to its Src Homology 2 (SH2) domains. The latter activation step leads to the release of the auto-inhibitory interface of SHP2, which in turn renders the SHP2 protein tyrosine phosphatase (PTP) active and available for substrate recognition and reaction catalysis. The catalytic activity of SHP2 was monitored using the surrogate substrate DiFMUP in a prompt fluorescence assay format.
The phosphatase reactions were performed at room temperature in 96-well black polystyrene plate, flat bottom, non-binding surface (Corning, Cat #3650) using a final reaction volume of 100 μL and the following assay buffer conditions: 50 mM HEPES, pH 7.2, 100 mM NaCl, 0.5 mM EDTA, 0.05% P-20, 1 mM DTT.
The inhibition of SHP2 by compounds of the invention (concentrations varying from 0.00005-10 μM) was monitored using an assay in which 0.2 nM of SHP2 was incubated with 0.5 μM of Activating Peptide 1 (sequence: H2N-LN(pY)IDLDLV(dPEG8)LST(pY)ASINFQK-amide) or Activating Peptide 2 (sequence: H2N-LN(pY)AQLWHA(dPEG8)LTI(pY)ATIRRF-amide). After 30-60-minutes incubation at 25° C., the surrogate substrate DiFMUP (Invitrogen, Cat #D6567) was added to the reaction and activity was determined by a kinetic read using a microplate reader (Envision, Perkin-Elmer or Spectramax M5, Molecular Devices). The excitation and emission wavelengths were 340 nm and 450 nm, respectively. Initial rates were determined from a linear fit of the data, and the inhibitor dose response curves were analyzed using normalized IC50 regression curve fitting with control based normalization.

IC50 [nM]	Structure (SMILES)
≤ 50	Cc1nc(N2CCC3(CC2)CO[C@@H](C)[C@H]3N)n2ccnc2c1Sc1ccnc(N)c1Cl [Compound 29, (3S,4S)-8-{8-[(2-amino-3-chloropyridin-4-yl)sulfanyl]-7-methylimidazo[1,2-c]pyrimidin-5-yl}-3-methyl-2-oxa-8-azaspiro[4.5]decan-4-amine]
≤ 50	Cc1nc(N2CCC3(CC2)CO[C@@H](C)[C@H]3N)n2ccnc2c1-c1ccc2cn[nH]c2c1 [Compound 30, (3S,4S)-8-[8-(2H-indazol-6-yl)-7-methylimidazo[1,2-c]pyrimidin-5-yl]-3-methyl-2-oxa-8-azaspiro[4.5]decan-4-amine]
≤ 50	COc1ccc(-c2c(C)nc(N3CCC4(CC3)CO[C@@H](C)[C@H]4N)n3ccnc23)c(Cl)c1C#N [Compound 31, 3-{5-[(3S,4S)-4-amino-3-methyl-2-oxa-8-azaspiro[4.5]decan-8-yl]-7-methylimidazo[1,2-c]pyrimidin-8-yl}-2-chloro-6-methoxybenzonitrile]
≤ 50	Cc1nc(N2CCC3(CC2)CO[C@@H](C)[C@H]3N)n2ccnc2c1-c1cccc2nc[nH]c12 [Compound 32, (3S,4S)-8-[8-(1H-1,3-benzodiazol-4-yl)-7-methylimidazo[1,2-c]pyrimidin-5-yl]-3-methyl-2-oxa-8-azaspiro[4.5]decan-4-amine]
≤ 50	Cc1nc(N2CCC3(CC2)CO[C@@H](C)[C@H]3N)n2ccnc2c1-c1ccc2[nH]cnc2c1 [Compound 33, (3S,4S)-8-[8-(1H-1,3-benzodiazol-6-yl)-7-methylimidazo[1,2-c]pyrimidin-5-yl]-3-methyl-2-oxa-8-azaspiro[4.5]decan-4-amine]
≤ 50	Cc1nc(N2CCC3(CC2)CO[C@@H](C)[C@H]3N)n2ccnc2c1-c1ccc2c(cnn2C)c1 [Compound 34, (3S,4S)-3-methyl-8-[7-methyl-8-(1-methyl-1H-indazol-5-yl)imidazo[1,2-c]pyrimidin-5-yl]-2-oxa-8-azaspiro[4.5]decan-4-amine]
≤ 50	Cc1nc(N2CCC3(CC2)CO[C@@H](C)[C@H]3N)n2ccnc2c1-c1cccc2cc[nH]c12 [Compound 35, (3S,4S)-8-[8-(1H-indol-7-yl)-7-methylimidazo[1,2-c]pyrimidin-5-yl]-3-methyl-2-oxa-8-azaspiro[4.5]decan-4-amine]
≤ 50	Cc1nc(N2CCC3(CC2)CO[C@@H](C)[C@H]3N)n2ccnc2c1-c1cccc2cn[nH]c12 [Compound 36, (3S,4S)-8-[8-(2H-indazol-7-yl)-7-methylimidazo[1,2-c]pyrimidin-5-yl]-3-methyl-2-oxa-8-azaspiro[4.5]decan-4-amine]
≤ 50	Cc1nc(N2CCC3(CC2)CO[C@@H](C)[C@H]3N)n2ccnc2c1-c1cc(Cl)c2cn[nH]c2c1 [Compound 37, (3S,4S)-8-[8-(4-chloro-2H-indazol-6-yl)-7-methylimidazo[1,2-c]pyrimidin-5-yl]-3-methyl-2-oxa-8-azaspiro[4.5]decan-4-amine]
≤ 50	Cc1nc(N2CCC3(CC2)CO[C@@H](C)[C@H]3N)n2ccnc2c1-c1cc2[nH]ncc2cc1Cl [Compound 38, (3S,4S)-8-[8-(5-chloro-2H-indazol-6-yl)-7-methylimidazo[1,2-c]pyrimidin-5-yl]-3-methyl-2-oxa-8-azaspiro[4.5]decan-4-amine]
≤ 50	Cc1nc(N2CCC3(CC2)CO[C@@H](C)[C@H]3N)n2ccnc2c1-c1ccc2[nH]ncc2c1 [Compound 39, (3S,4S)-8-[8-(2H-indazol-5-yl)-7-methylimidazo[1,2-c]pyrimidin-5-yl]-3-methyl-2-oxa-8-azaspiro[4.5]decan-4-amine]
≤ 50	Cc1nc(N2CCC3(CC2)CO[C@@H](C)[C@H]3N)n2ccnc2c1-c1cc2ccccc2n1C [Compound 40, (3S,4S)-3-methyl-8-[7-methyl-8-(1-methyl-1H-indol-2-yl)imidazo[1,2-c]pyrimidin-5-yl]-2-oxa-8-azaspiro[4.5]decan-4-amine]
≤ 50	Cc1nc(N2CCC3(CC2)CO[C@@H](C)[C@H]3N)n2ccnc2c1-c1ccc2nccnc2c1Cl [Compound 41, (3S,4S)-8-[8-(5-chloroquinoxalin-6-yl)-7-methylimidazo[1,2-c]pyrimidin-5-yl]-3-methyl-2-oxa-8-azaspiro[4.5]decan-4-amine]
≤ 50	Cc1nc(N2CCC3(CC2)CO[C@@H](C)[C@H]3N)n2ccnc2c1-c1ccc2c(c1Cl)OCCC2 [Compound 43, (3S,4S)-8-[8-(8-chloro-3,4-dihydro-2H-1-benzopyran-7-yl)-7-methylimidazo[1,2-c]pyrimidin-5-yl]-3-methyl-2-oxa-8-azaspiro[4.5]decan-4-amine]
≤ 50	Cc1nc(N2CCC3(CC2)CO[C@@H](C)[C@H]3N)n2ccnc2c1-c1ccc2c(c1Cl)OCC2 [Compound 44, (3S,4S)-8-[8-(7-chloro-2,3-dihydro-1-benzofuran-6-yl)-7-methylimidazo[1,2-c]pyrimidin-5-yl]-3-methyl-2-oxa-8-azaspiro[4.5]decan-4-amine]
≤ 50	Cc1nc(N2CCC3(CC2)CO[C@@H](C)[C@H]3N)n2ccnc2c1-c1cccc(C#N)c1Cl [Compound 45, 3-{5-[(3S,4S)-4-amino-3-methyl-2-oxa-8-azaspiro[4.5]decan-8-yl]-7-methylimidazo[1,2-c]pyrimidin-8-yl}-2-chlorobenzonitrile]
≤ 50	COc1c(C#N)ccc(-c2c(C)nc(N3CCC4(CC3)CO[C@@H](C)[C@H]4N)n3ccnc23)c1Cl [Compound 46, 4-{5-[(3S,4S)-4-amino-3-methyl-2-oxa-8-azaspiro[4.5]decan-8-yl]-7-methylimidazo[1,2-c]pyrimidin-8-yl}-3-chloro-2-methoxybenzonitrile]
≤ 50	COc1nccc(-c2c(C)nc(N3CCC4(CC3)CO[C@@H](C)[C@H]4N)n3ccnc23)c1Cl [Compound 47, (3S,4S)-8-[8-(3-chloro-2-methoxypyridin-4-yl)-7-methylimidazo[1,2-c]pyrimidin-5-yl]-3-methyl-2-oxa-8-azaspiro[4.5]decan-4-amine]
≤ 50	Cc1nc(N2CCC3(CC2)CO[C@@H](C)[C@H]3N)n2ccnc2c1-c1ccc2ccnn2c1 [Compound 48, (3S,4S)-3-methyl-8-(7-methyl-8-pyrazolo[1,5-a]pyridin-6-yl-imidazo[1,2-c]pyrimidin-5-yl)-2-oxa-8-azaspiro[4.5]decan-4-amine]
≤ 50	COc1cc(Cl)c(Cl)c(-c2c(C)nc(N3CCC4(CC3)CO[C@@H](C)[C@H]4N)n3ccnc23)c1 [Compound 49, (3S,4S)-8-[8-(2,3-dichloro-5-methoxyphenyl)-7-methylimidazo[1,2-c]pyrimidin-5-yl]-3-methyl-2-oxa-8-azaspiro[4.5]decan-4-amine]
≤ 50	Cc1nc(N2CCC3(CC2)CO[C@@H](C)[C@H]3N)n2ccnc2c1-c1cccc2c(Cl)c[nH]c12 [Compound 50, (3S,4S)-8-[8-(3-chloro-1H-indol-7-yl)-7-methylimidazo[1,2-c]pyrimidin-5-yl]-3-methyl-2-oxa-8-azaspiro[4.5]decan-4-amine]
50 to 500	Cc1nc(N2CCC3(CC2)CO[C@@H](C)[C@H]3N)n2ccnc2c1-c1ccn2ccnc2c1 [Compound 51, (3S,4S)-8-(8-imidazo[1,2-a]pyridin-7-yl-7-methyl-imidazo[1,2-c]pyrimidin-5-yl)-3-methyl-2-oxa-8-azaspiro[4.5]decan-4-amine]
≤ 50	Cc1nc(N2CCC3(CC2)CO[C@@H](C)[C@H]3N)n2ccnc2c1-c1cc(Cl)cc2cc[nH]c12 [Compound 52, (3S,4S)-8-[8-(5-chloro-1H-indol-7-yl)-7-methylimidazo[1,2-c]pyrimidin-5-yl]-3-methyl-2-oxa-8-azaspiro[4.5]decan-4-amine]
≤ 50	Cc1nc(N2CCC3(CC2)CO[C@@H](C)[C@H]3N)n2ccnc2c1-c1ccnc2cc[nH]c12 [Compound 53, (3S,4S)-3-methyl-8-(7-methyl-8-{1H-pyrrolo[3,2-b]pyridin-7-yl}imidazo[1,2-c]pyrimidin-5-yl)-2-oxa-8-azaspiro[4.5]decan-4-amine]
≤ 50	Cc1nc(N2CCC3(CC2)CO[C@@H](C)[C@H]3N)n2ccnc2c1-c1ccc(O)c(Cl)c1Cl [Compound 54, 4-{5-[(3S,4S)-4-amino-3-methyl-2-oxa-8-azaspiro[4.5]decan-8-yl]-7-methylimidazo[1,2-c]pyrimidin-8-yl}-2,3-dichlorophenol]
≤ 50	Cc1nc(N2CCC3(CC2)CO[C@@H](C)[C@H]3N)n2ccnc2c1-c1cccc2c(F)c[nH]c12 [Compound 55, (3S,4S)-8-[8-(3-fluoro-1H-indol-7-yl)-7-methylimidazo[1,2-c]pyrimidin-5-yl]-3-methyl-2-oxa-8-azaspiro[4.5]decan-4-amine]
≤ 50	C[C@@H]1OCC2(CCN(c3ncc(-c4cccc(Cl)c4Cl)c4nccn34)CC2)[C@@H]1N [Compound 56, (3S,4S)-8-[8-(2,3-dichlorophenyl)imidazo[1,2-c]pyrimidin-5-yl]-3-methyl-2-oxa-8-azaspiro[4.5]decan-4-amine]

From patent publication US11673901B2, “Polycyclic compounds as allosteric SHP2 inhibitors” (Revolution Medicines, Inc., priority 2017, dated 2023)
